Results on seven molecules are retold here after paper PMC11279465, “Dual Inhibitors of P-gp and Carbonic Anhydrase XII (hCA XII) against Tumor Multidrug Resistance with Piperazine Scaffold” (Molecules, 2024).

The subject of experiment [1] is K562/DOX cells. Put plainly: Doxorubicin cytotoxicity enhancement assay (MTT). The class given is cell-based, human. To be noted: 72 h. As for the experimental part:
K562 is a highly undifferentiated erythroleukemia cell line. The doxorubicin-resistant K562/DOX cells overexpress almost exclusively the transporter membrane protein P-gp.
K562/DOX cells were incubated for 72 h with different concentrations of doxorubicin in combination with 1 or 3 µM of all compounds. […] HT29, A549, HT29/DOX and A549/DOX cells were incubated for 48 h with 5 µM doxorubicin, alone or in combination with 1 or 3 µM of selected compounds. Cell viability of the cell lines was measured by the MTT assay, using a Synergy HT microplate spectrofluorometer (Bio-Tek Instruments, Winooski, VT, USA). The absorbance of untreated cells was considered 100%; results were expressed as a percentage of viable treated cells versus the control untreated cells.

For experiment [2], the system named is HT29/DOX cells. In words: Doxorubicin co-administration assay (MTT). The conditions noted are these: compound at 3 µM + doxorubicin 5 µM, 48 h. Format: cell-based, human. As for the experimental part:
(§1) These compounds were then assayed at 1 and 3 µM concentrations in co-administration with doxorubicin at a concentration of 5 µM, which is known to discriminate well between sensitive and resistant cells. […] Moreover, in the A549/DOX cell line, the co-administration of 1, 2, 4–6, 14 and 19, tested at 3 µM, led to the highest enhancement of doxorubicin toxicity reaching a reduction of nearly 55.0% in cell viability.
(§2) K562/DOX cells were incubated for 72 h with different concentrations of doxorubicin in combination with 1 or 3 µM of all compounds. IC50 was the concentration killing 50% of cells and was determined graphically from relative survival curves obtained by GraphPad Prism 5 software (GraphPad, San Diego, CA, USA). HT29, A549, HT29/DOX and A549/DOX cells were incubated for 48 h with 5 µM doxorubicin, alone or in combination with 1 or 3 µM of selected compounds. Cell viability of the cell lines was measured by the MTT assay, using a Synergy HT microplate spectrofluorometer (Bio-Tek Instruments, Winooski, VT, USA). The absorbance of untreated cells was considered 100%; results were expressed as a percentage of viable treated cells versus the control untreated cells.

The subject of experiment [3] is A549/DOX cells. In words: Doxorubicin co-administration assay (MTT). The class given is cell-based, human. The conditions noted are these: compound at 3 µM + doxorubicin 5 µM, 48 h. As for the experimental part: as §1, §2
The target in another experiment is T1, hCA I (Homo sapiens, UniProt P00915).
T1 construct: made in house
T1 sequence (P00915 whole entry): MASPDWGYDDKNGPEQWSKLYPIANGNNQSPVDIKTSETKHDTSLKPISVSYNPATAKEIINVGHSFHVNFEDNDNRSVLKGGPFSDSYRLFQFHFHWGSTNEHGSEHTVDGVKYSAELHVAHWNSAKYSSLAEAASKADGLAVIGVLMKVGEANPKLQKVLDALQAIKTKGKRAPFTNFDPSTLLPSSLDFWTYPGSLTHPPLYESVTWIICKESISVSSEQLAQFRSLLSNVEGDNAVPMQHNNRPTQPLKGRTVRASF
In words: CA inhibition, stopped-flow CO2 hydrase assay. Format: biochemical. To be noted: stopped-flow technique; incubation time 6 h; mean of 3 assays. As for the experimental part:
(§3) Four hCA isoforms were used in this assay: the cytosolic hCA I and II and the tumor-associated transmembrane hCA IX and XII isoforms. Acetazolamide (AAZ) was used as a standard inhibitor.
(§4) An SX.18MV-R Applied Photophysics (Oxford, UK) stopped-flow instrument has been used to assay the catalytic/inhibition of various CA isozymes. […] Saturated CO2 solutions in water at 25 °C were used as substrate. Stock solutions of inhibitors were prepared at a concentration of 10 μM (in DMSO-water 1:1, v/v) and dilutions up to 0.01 nM were carried out with the assay buffer mentioned above. […] Inhibitor and enzyme solutions were preincubated together for 6 h at room temperature prior to assay in order to allow for the formation of the E-I complex. […] The inhibition constants were obtained by non-linear least-squares methods using the Cheng–Prusoff equation, as reported earlier, and represent the mean from at least three different determinations.

The next experiment deals with T2, hCA XII (Homo sapiens, UniProt O43570).
T2 construct: made in house
T2 sequence (O43570 25-354): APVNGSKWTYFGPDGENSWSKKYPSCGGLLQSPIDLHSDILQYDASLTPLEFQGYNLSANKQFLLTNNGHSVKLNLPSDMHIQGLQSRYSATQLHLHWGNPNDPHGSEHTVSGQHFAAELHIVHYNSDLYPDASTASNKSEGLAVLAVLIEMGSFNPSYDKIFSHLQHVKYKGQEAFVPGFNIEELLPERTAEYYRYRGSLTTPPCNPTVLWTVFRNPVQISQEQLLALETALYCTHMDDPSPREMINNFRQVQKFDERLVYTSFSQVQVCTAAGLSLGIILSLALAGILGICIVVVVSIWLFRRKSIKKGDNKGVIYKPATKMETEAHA
Put plainly: CA inhibition, stopped-flow CO2 hydrase assay. The class given is biochemical. The conditions noted are these: stopped-flow technique; incubation time 6 h; mean of 3 assays. As for the experimental part: as §3, §4

The next experiment deals with T3, hCA II (Homo sapiens, UniProt P00918).
T3 construct: made in house
In words: CA inhibition, stopped-flow CO2 hydrase assay. Format: biochemical. The conditions noted are these: stopped-flow technique; incubation time 6 h; mean of 3 assays. As for the experimental part:
as §3, §4

The target in the next experiment is T4, hCA IX (Homo sapiens, UniProt Q16790).
T4 construct: made in house
Put plainly: CA inhibition, stopped-flow CO2 hydrase assay. Format: biochemical. To be noted: stopped-flow technique; incubation time 6 h; mean of 3 assays. As for the experimental part:
as §3, §4

The test system of experiment [4] is K562/DOX cells. In words: Intrinsic cytotoxicity (MTT). Format: cell-based, human. The conditions noted are these: compound alone at 3 µM, 72 h. As for the experimental part: Compounds were first studied at 1 and 3 µM concentrations to evaluate their intrinsic cytotoxicity in both the parental K562 and the resistant K562/DOX cell lines, using the MTT assay. All compounds had no intrinsic cytotoxicity in the parental line.
The intrinsic toxicity of the studied compounds was determined by an MTT assay. K562 and K562/DOX were exposed for 72 h with compounds at 1 and 3 µM concentrations while HT29, A549, HT29/DOX and A549/DOX cells were incubated for 48 h with compounds used at different concentrations (from 10 nM to 50 µM). The percentage of growth compared to the untreated control was transformed into histograms with the GraphPad Prism 5 program.

The subject of experiment [5] is HT29/DOX cells. Put plainly: Intrinsic cytotoxicity (MTT). Format: cell-based, human. To be noted: compound alone at 1 µM; HT29/DOX; 48 h. As for the experimental part:
(§5) All compounds were preliminarily studied to evaluate their intrinsic cytotoxicity at different concentrations (from 10 nM to 50 µM) in the parental HT29 and A549 and the resistant HT29/DOX and A549/DOX cells using the MTT assay.
(§6) The intrinsic toxicity of the studied compounds was determined by an MTT assay. K562 and K562/DOX were exposed for 72 h with compounds at 1 and 3 µM concentrations while HT29, A549, HT29/DOX and A549/DOX cells were incubated for 48 h with compounds used at different concentrations (from 10 nM to 50 µM). The percentage of growth compared to the untreated control was transformed into histograms with the GraphPad Prism 5 program. […]

The test system of experiment [6] is A549/DOX cells. Put plainly: Intrinsic cytotoxicity (MTT). To be noted: compound alone at 1 µM; A549/DOX; 48 h. The class given is cell-based, human. As for the experimental part: as §5, §6

Where “and” joins values, the source holds several entries; their conditions need not be identical. Identical values can stand only once.

Turning to `COc1cc(CN2CCN(CCCOc3ccc4ccc(=O)oc4c3)CC2)cc(OC)c1OC` [Compound 14, 7-(3-(4-(3,4,5-Trimethoxybenzyl)piperazin-1-yl)propoxy)-2H-chromen-2-one], the “RF (Reversal Fold: IC50 of doxorubicin alone / in presence of modulator)” value in the experiment on K562/DOX cells [1] (compound at 1 µM) amounted to 1.0; in the experiment with K562/DOX cells [1] (compound at 3 µM), 3.4. For the same molecule, the results for the “reduction in cell viability” value in the experiment on HT29/DOX cells [2] and with A549/DOX cells [3] were 65.0% and about 55.0%, respectively. Also, the Ki – broadly, a measure of affinity in units of concentration, obtained from inhibition or displacement – on hCA I was over 10000 nM; on hCA XII, 13.6 nM; on hCA II it was over 10000 nM; on hCA IX it was 40.1 nM.
Turning to `COc1cc(/C=C/CN2CCN(CCOc3ccc4oc(=O)ccc4c3)CC2)cc(OC)c1OC` [Compound 7, (E)-6-(2-(4-(3-(3,4,5-Trimethoxyphenyl)allyl)piperazin-1-yl)ethoxy)-2H-chromen-2-one], the “RF (Reversal Fold: IC50 of doxorubicin alone / in presence of modulator)” value in the experiment on K562/DOX cells [1] (compound at 1 µM) was 1 and 1.1; in the experiment with K562/DOX cells [1] (compound at 3 µM) it was 1. The “reduction of cellular viability” value with K562/DOX cells [4] is given as 30–50%. Moreover, the Ki at hCA I was over 10000 nM; at hCA XII it was 29.5 nM; on hCA II, over 10000 nM; at hCA IX it was 51 nM.
Consider `COc1cc(/C=C/CN2CCN(CCCOc3ccc4ccc(=O)oc4c3)CC2)cc(OC)c1OC` [Compound 2, (E)-7-(3-(4-(3-(3,4,5-Trimethoxyphenyl)allyl)piperazin-1-yl)propoxy)-2H-chromen-2-one], for which the “RF (Reversal Fold: IC50 of doxorubicin alone / in presence of modulator)” value with K562/DOX cells [1] (compound at 1 µM) is recorded as 3.8; in the experiment with K562/DOX cells [1] (compound at 3 µM), 4.5. Also, in the experiment with A549/DOX cells [3], the “reduction in cell viability” value is recorded as about 55.0%. For the same molecule, the Ki was over 10000 nM at hCA I, 29.4 nM on hCA XII, over 10000 nM on hCA II and 62.6 nM on hCA IX.
On to `COc1cc(/C=C/CN2CCN(CCCCOc3ccc4oc(=O)ccc4c3)CC2)cc(OC)c1OC` [Compound 9, (E)-6-(4-(4-(3-(3,4,5-Trimethoxyphenyl)allyl)piperazin-1-yl)butoxy)-2H-chromen-2-one], for which the “RF (Reversal Fold: IC50 of doxorubicin alone / in presence of modulator)” value in the experiment on K562/DOX cells [1] (compound at 1 µM) stood at 2.5; in the experiment with K562/DOX cells [1] (compound at 3 µM), 1.3. Moreover, the “reduction of cellular viability” value with K562/DOX cells [4] is given as 30–50%. Moreover, the Ki is over 10000 nM at hCA I, 7.3 nM on hCA XII, over 10000 nM at hCA II and 22.1 nM at hCA IX.
Take `COc1ccc(C(CCCN2CCN(CCOc3ccc4ccc(=O)oc4c3)CC2)c2ccc(OC)cc2)cc1` [Compound 25, 7-(2-(4-(4,4-Bis(4-methoxyphenyl)butyl)piperazin-1-yl)ethoxy)-2H-chromen-2-one]: in the experiment with K562/DOX cells [1] (compound at 1 µM), the “RF (Reversal Fold: IC50 of doxorubicin alone / in presence of modulator)” value worked out at 5.9. Besides, the “reduction of cellular viability” value with K562/DOX cells [4] was 30–50%. In addition, the Ki at hCA I was over 10000 nM; at hCA XII, 84.7 nM; at hCA II it was over 10000 nM; at hCA IX it was 113 nM. In addition, the toxicity in the experiment on HT29/DOX cells [5] and with A549/DOX cells [6] was at least 35% in each case.
For the molecule `COc1cc(/C=C/CN2CCN(CCOc3ccc4ccc(=O)oc4c3)CC2)cc(OC)c1OC` [Compound 1, (E)-7-(2-(4-(3-(3,4,5-Trimethoxyphenyl)allyl)piperazin-1-yl)ethoxy)-2H-chromen-2-one], the “RF (Reversal Fold: IC50 of doxorubicin alone / in presence of modulator)” value with K562/DOX cells [1] (compound at 1 µM) is recorded as 1.6; in the experiment with K562/DOX cells [1] (compound at 3 µM), 2.3. The “reduction in cell viability” value in the experiment on A549/DOX cells [3] is reported as about 55.0%. For the same molecule, the Ki was over 10000 nM on hCA I, 13 nM on hCA XII, over 10000 nM on hCA II and 51.3 nM at hCA IX.
Consider `COc1cc(CN2CCN(CCOc3ccc4oc(=O)ccc4c3)CC2)cc(OC)c1OC` [Compound 19, 6-(2-(4-(3,4,5-Trimethoxybenzyl)piperazin-1-yl)ethoxy)-2H-chromen-2-one], for which the entries for the “RF (Reversal Fold: IC50 of doxorubicin alone / in presence of modulator)” value with K562/DOX cells [1] (compound at 1 µM) and in the experiment on K562/DOX cells [1] (compound at 3 µM) were 1.4 and 2.2, respectively. For the same molecule, the results for the “reduction in cell viability” value in the experiment on HT29/DOX cells [2] and with A549/DOX cells [3] were 65.0% and about 55.0%, respectively. The Ki at hCA I is over 10000 nM; on hCA XII, 5.8 nM; on hCA II, over 10000 nM; on hCA IX it was 84.7 nM.
